Source: article PMC3575409, “Identification of a Novel Protein-Protein Interaction Motif Mediating Interaction of GPCR-Associated Sorting Proteins with G Protein-Coupled Receptors” (PLoS ONE, 2013)
Entries after “also recorded” stand apart in the source; their conditions may differ.

Columns and labels:
[1] = tested on: interaction between GASP-7 and GST-fused ADRB1 C-tail; assay: GST-pull down competition, GASP-7 / ADRB1 C-tail; assay type: binding; settings: 150 µM peptide
Protocol: (§1) GST-fusion proteins were immobilized on glutathione-coupled Sepharose beads (GE Healthcare) for 1 h at 4°C and incubated with [^35S]-labelled in vitro translated GASP proteins or their truncated or mutated forms in ice-cold binding buffer containing: 20 mM Tris-HCl pH 7.4, 150 mM NaCl, 1 mM EDTA, 1 mM DTT, 10% glycerol and 1% Triton X-100. The mixture was incubated for 1 h at 4°C with gentle rocking. The beads were washed five times with the same ice-cold buffer, resuspended in 30 µl SDS-PAGE sample buffer, incubated 10 min at 65°C, and pelleted for 60 s at 3000 g. The supernatants were then analyzed by SDS-PAGE, the gels were stained with Coomassie blue to visualize GST-fusion proteins, dried and analyzed using a Phosphor-imager (Personal Molecular Imager FX, Biorad) to visualize [^35S]-labelled GASPs. Quantification was performed with the Quantity One software (Biorad). GST-pull down quantification data were analyzed using GraphPad Prism 4.03 (GraphPad Software). Quantifications presented are means of at least three independent experiments.
(§2) GASP peptide or its corresponding scrambled version was incubated with GST-fused proteins and [^35S]-labelled GASPs and the binding was analyzed as described for the GST-pull down assay. […]

[2] = tested on: interaction between GASP-1 and GST-fused ADRB1 C-tail; assay: GST-pull down competition, GASP-1 / ADRB1 C-tail; assay type: binding; settings: 150 µM peptide
Protocol: as §1, §2

[3] = tested on: interaction between GASP-2 and GST-fused ADRB1 C-tail; assay: GST-pull down competition, GASP-2 / ADRB1 C-tail; assay type: binding
Protocol: as §1, §2

[4] = molecular target: T1, binding of full-length CNR2 to the central domain of GASP-1 (Homo sapiens, UniProt P34972); assay: SPR competition, CNR2 / central domain of GASP-1; settings: 0.30 µM CNR2, GASP peptide 250 µM, control peptide up to 250 µM
T1 construct: Both ADRB2 and CNR2 full-length receptors were produced in P. pastoris and purified as previously described; implied only by the HisTrap purification; made in house; host or cells: CNR2: Pichia pastoris; GST-GASP-1(380-1073): E. coli BL21
T1 sequence (P34972 whole entry, the tested form may be a part): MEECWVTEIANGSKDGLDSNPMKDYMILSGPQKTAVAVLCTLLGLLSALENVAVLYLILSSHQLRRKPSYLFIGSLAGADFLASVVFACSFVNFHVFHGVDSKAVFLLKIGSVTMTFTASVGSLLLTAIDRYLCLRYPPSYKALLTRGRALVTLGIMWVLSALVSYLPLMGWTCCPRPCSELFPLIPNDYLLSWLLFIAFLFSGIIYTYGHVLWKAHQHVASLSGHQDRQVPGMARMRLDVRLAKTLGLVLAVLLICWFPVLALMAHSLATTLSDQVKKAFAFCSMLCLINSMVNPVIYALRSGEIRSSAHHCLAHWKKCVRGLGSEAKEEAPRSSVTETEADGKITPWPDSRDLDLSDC
Protocol: (§3) The human ADRB2 and CNR2 receptors were produced using the P. pastoris expression system as previously described, [16]. After methanol-induced receptor expression, cells were washed with PBS pH 7.0 and resuspended in ice-cold buffer A (50 mM Tris-HCl pH 7.4, 500 mM NaCl, 10% glycerol, 5 mM EDTA, 1 mM PMSF, 2 mM DDT). Cells were then lysed with two cycles of 20 s shaking and 20 s cooling on ice using 0.5 mm glass beads in a FastPrep 24 device. Unbroken cells and cell debris were removed by centrifugation (3000 g, 5 min, 4°C) and the membrane fraction from the supernatant was pelleted by ultracentrifugation (100,000 g, 45 min, 4°C). Membranes were resuspended in buffer B (50 mM Tris-HCl pH 7.4, 500 mM NaCl, 10% glycerol, 1 mM PMSF, 2 mM DTT) using a Dounce homogenizer, and then successively washed with urea (buffer B with 4 M urea) and NaOH (buffer B with 10 mM NaOH), and ultracentrifuged (100,000 g, 45 min, 4°C). Finally membranes were resuspended in buffer B and quantified with the bicinchoninic acid (BCA) method (Pierce). […]
(§4) The binding curves were double referenced by (i) subtraction of the signal from the GST captured flow cell from the signal of the flow cell with captured central domain of GASP-1 and (ii) subtraction of the appropriate blank injection from the receptor injections with or without peptide. […] Endpoint responses were read 20 s after injection end. […]

[5] = molecular target: T2, binding of full-length ADRB2 to the central domain of GASP-1 (Homo sapiens, UniProt P07550); assay: SPR competition, ADRB2 / central domain of GASP-1; settings: 1.1 µM ADRB2, GASP peptide 250 µM, control peptide up to 250 µM
T2 construct: Both ADRB2 and CNR2 full-length receptors were produced in P. pastoris and purified as previously described; implied only by the HisTrap purification; made in house; host or cells: ADRB2: Pichia pastoris; GST-GASP-1(380-1073): E. coli BL21
Protocol: as §3, §4

AVEWIQEVFWEKRKPEEFGIERAS [scrambled peptide, scrambled version of GASP peptide]
effect on the interaction between GASP-7 and ADRB1 C-tail [1]: did not | effect on the interaction between GASP-1 and ADRB1 C-tail [2]: did not | effect on the interaction between GASP-2 and ADRB1 C-tail ([3]; 150 µM peptide): did not | effect on the interaction between GASP-2 and ADRB1 C-tail ([3]; dose-effect experiment, peptide 1 to 250 µM (scrambled: highest dose)): did not affect this interaction; also recorded: no significant effect

RVKQEPRFEEEVIIGAAAAAEKEA [control peptide, control peptide where the conserved SWFW motif was changed to AAAA]
effect on binding of CNR2 to the central domain of GASP-1 [4]: only had a minor effect on the interaction | effect on binding of ADRB2 to the central domain of GASP-1 [5]: only had a minor effect on the interaction
